Data on 8 molecules can be found in patent US20230114241A1, “METHODS OF TREATING EPILEPSY USING THE SAME” (Trevena, Inc., priority 2019, published 2023).

For one data set, the target named is hERG channel (Homo sapiens, UniProt Q12809). As to the kind of experiment: cell-based.
Data set [1] concerns the target T1, human sphingosine-1-phosphate receptor 1 (S1P1) (Homo sapiens, UniProt P21453). As to the kind of experiment: Inhibition of cAMP production (HTRF cAMP HiRange), S1P1 CHO-K1 cells. It is filed as cell-based. The settings on record: for Emax: CHO-K1, efficacy normalized to maximum efficacy of fingolimod, read-out: hS1P1 CAMP SPAN; for EC50: read-out: hS1P1 CAMP pEC50 (converted). In short, it runs like this:
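Intracellular cAMP changes read by TR-FRET (HTRF HiRange, 1 h room temperature) after 30 min compound exposure at 37 °C. Cells: overnight-plated CHO-K1 stably expressing tagged human S1P1 with EA-β-arrestin2. Responses normalized to fingolimod.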
Target sequence in this assay (P21453 whole entry): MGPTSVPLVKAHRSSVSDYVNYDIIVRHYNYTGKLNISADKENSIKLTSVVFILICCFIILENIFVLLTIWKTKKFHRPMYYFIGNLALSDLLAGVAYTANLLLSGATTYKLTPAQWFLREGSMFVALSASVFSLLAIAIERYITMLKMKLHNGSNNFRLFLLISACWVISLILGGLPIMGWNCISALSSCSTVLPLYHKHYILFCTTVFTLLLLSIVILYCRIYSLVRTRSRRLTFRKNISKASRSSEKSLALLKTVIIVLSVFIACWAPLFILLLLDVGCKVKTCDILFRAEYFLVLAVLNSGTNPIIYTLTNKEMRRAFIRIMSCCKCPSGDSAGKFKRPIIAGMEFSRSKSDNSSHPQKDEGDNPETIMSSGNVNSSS
In general terms: cAMP levels reflect the balance of adenylyl cyclase and phosphodiesterase activity.

Data set [2] deals with T1, human sphingosine-1-phosphate receptor 1 (S1P1). The data set can be described thus: β-Arrestin2 recruitment assay (PathHunter), S1P1 CHO-K1 cells. It is filed as cell-based. The conditions noted are these: for Emax: efficacy normalized to maximum efficacy of fingolimod, read-out: hS1P1 B-arrestin2 SPAN; for EC50: β-arrestin2 recruitment, read-out: hS1P1 B-arrestin2 pEC50 (converted). A digest of the protocol: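 Agonist-driven β-arrestin2 recruitment measured by β-galactosidase complementation after 60 min compound exposure at 37 °C and 1 h detection at room temperature. Cells: stable CHO-K1 line expressing tagged human S1P1 with EA-β-arrestin2, plated the night before. Data expressed relative to fingolimod.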
Target sequence in this assay (P21453 whole entry): as above
Target sequence in this assay (P32121 whole entry partner): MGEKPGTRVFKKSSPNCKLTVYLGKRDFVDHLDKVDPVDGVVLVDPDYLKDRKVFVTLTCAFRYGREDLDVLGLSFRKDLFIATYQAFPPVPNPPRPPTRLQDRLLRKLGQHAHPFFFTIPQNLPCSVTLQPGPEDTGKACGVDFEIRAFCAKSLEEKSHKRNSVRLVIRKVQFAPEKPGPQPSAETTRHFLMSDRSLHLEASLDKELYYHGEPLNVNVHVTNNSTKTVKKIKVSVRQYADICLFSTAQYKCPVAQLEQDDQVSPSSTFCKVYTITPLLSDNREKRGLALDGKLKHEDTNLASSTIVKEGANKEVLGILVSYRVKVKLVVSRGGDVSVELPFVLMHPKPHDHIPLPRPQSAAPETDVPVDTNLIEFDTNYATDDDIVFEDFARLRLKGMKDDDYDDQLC

In data set [3] the target is human sphingosine-1-phosphate receptor 2 (S1P2) (Homo sapiens, UniProt O95136). As to the kind of experiment: Selectivity: inositol monophosphate production (IP-one), S1P2 CHO-K1 cells. It counts as cell-based. The conditions noted are these: for Emax: CHO-K1, efficacy normalized to maximal efficacy of CYM5520, read-out: hS1P2 IP-one SPAN; for EC50: inositol monophosphate accumulation, read-out: hS1P2 IP-one pEC50 (converted). How it is done:
(§1) Cell Culturing and Assay Plating Cell lines were cultured in AssayComplete™ Media 6 (DiscoverX Corporation, Cat #: 920018GF2) at 37° C. and 5% CO2 in a humidified CO2 and temperature-controlled incubator. To begin assay plating, cells were washed with Dulbecco's phosphate buffered saline (CellGro, Cat #: 21-031-CV) and lifted from the culturing flask by incubation (37° C., 5 min) with CellStripper (Cellgro, Cat #: 25-056-CI). […] Plated cells were incubated overnight at 37° C. and 5% CO2 in a humidified CO2 and temperature-controlled incubator. Detecting Inhibition of cAMP Production
S1P2 Agonist-promoted G-protein responses were determined by measuring changes in intracellular inositol monophosphate using the IP-one TB kit (CisBio, Cat #: 62IPAPEJ) based on time-resolved fluorescence resonance energy transfer (TR-FRET) technology. AssayComplete™ Cell Plating 2 Reagent was removed and replaced with 1× IP-one stimulation buffer (as per manufacturer's instructions) along with test or control compounds at the desired concentrations.
Following a 60-minute incubation at 37° C. and 5% CO2 in a humidified CO2 and temperature-controlled incubator, the components of the IP-one TB kit were added as per the manufacturer's instructions. After an hour incubation at room temperature, plates were analyzed by a BMG PheraStar microplate reader.
(§2) These values are normalized to fimgolimod, a known agonist of the sphingosine-1-phosphate 3 and 5 receptor or CYM5520, a known agonist of the sphingosine-1-phosphate 2 receptor. The tables also include potency values (pEC50) for modulating discrete receptor-mediated activities (inhibition of cAMP production or inositol monophosphate accumulation).

Data set [4] addresses human sphingosine-1-phosphate receptor 3 (S1P3) (Homo sapiens, UniProt Q99500). The data set can be described thus: Selectivity: inhibition of cAMP production (HTRF), S1P3 CHO-K1 cells. It counts as cell-based. The settings on record: for Emax: CHO-K1, efficacy normalized to maximal efficacy of fimgolimod, read-out: hS1P3 cAMP SPAN; for EC50: inhibition of cAMP production, read-out: hS1P3 cAMP pEC50 (converted). How it is done:
as §1
(§3) S1P3 and S1P5 Agonist-promoted G-protein responses were determined by measuring changes in intracellular cAMP using the HTRF® cAMP HiRange kit (CisBio, Cat #: 62AM6PEJ) based on time-resolved fluorescence resonance energy transfer (TR-FRET) technology. […] Following a 30-minute room temperature incubation the components of the cAMP HiRange kit were added as per the manufacturer's instructions. After an hour incubation at room temperature, plates were analyzed by a BMG PheraStar microplate reader.
as §2

Data set [5] concerns the target sphingosine-1-phosphate receptor 5 (S1P5) (Homo sapiens, UniProt Q9H228). The data set can be described thus: Selectivity: inhibition of cAMP production (HTRF), S1P5 CHO-K1 cells. It is filed as cell-based. The conditions noted are these: for Emax: CHO-K1, efficacy normalized to maximal efficacy of fimgolimod, read-out: hS1P5 cAMP SPAN; for EC50: inhibition of cAMP production, read-out: hS1P5 cAMP pEC50 (converted). How it is done:
as §1, §3, §2

Data set [6] has as its system peripheral blood lymphocytes. As to the kind of experiment: Lymphopenia: peripheral blood lymphocyte counts, acute and chronic s.c. dosing. It counts as in vivo. The settings on record: c57bl/6 mice. How it is done:
Compounds were tested for changes in peripheral blood lymphocytes in C57bl/6 mice. In acute studies, animals (n=5/group) were dosed subcutaneously with test compound at a dose of 3 mg/kg. Animals were sacrificed at specific time points and […] of whole blood was collected in EDTA (K2) Eppendorf tubes. Blood was stored on ice and shipped immediately overnight delivery to Charles River Laboratories for analysis. CRL ran samples through their WBC/differential panel on an Advia 120 instrument. We received peripheral lymphocyte counts (10^3 cells/μl) for each blood sample. Treatment group means were compared to a vehicle treatment group for statistical significance. In chronic studies, animals (n=6-8/group) were dosed subcutaneously for three to seven days with test compound at doses that were at least 5-fold higher than the efficacious dose in pharmacology/behavioral assays. On the last day, animals were sacrificed 45 minutes to 6 hrs after the final dose. Whole blood was collected and analyzed as described for acute studies. […]

The test system of data set [7] is Corneal Kindled Seizure Model. The data set can be described thus: Corneal Kindled Seizure Model (CKM), mouse. It counts as in vivo. The arrangement: key to Average Seizure Scores: seizure stage score; Stage 5 = rearing and falling, generalized clonic seizure. How it is done:
Compounds are tested for efficacy in Corneal Kindled Seizure Model (CKM) Mouse. The pharmacological profile of the corneal kindled mouse is consistent with human partial epilepsy and effectively identifies the anticonvulsant potential of useful compounds for this condition, such as levetiracetam. Male C57BL/6 mice are kindled electrically with 3 sec stimulation, 3 mA, 60 Hz, and corneal electrodes to a criterion of 5 consecutive Stage 5 seizures (facial clonus and head nodding progressing to forelimb clonus, and finally rearing and falling accompanied by a generalized clonic seizure). After receiving twice daily corneal stimulations, mice typically reach the first Stage 5 seizure between approximately 10-14 days. […] Fully kindled mice are then stimulated every-other day until all other mice within the group reach the criterion of 5 consecutive Stage 5 seizures. Any mouse not achieving the fully kindled state is not included in any evaluation of investigational compounds. Testing of investigational compounds commences at least 5-7 days after the last stimulation. Mice are stimulated on the day prior to any drug evaluation to ensure that all mice to be used in the drug study will present with a Stage 5 seizure. […] After testing, the corneal kindled animals are returned to their home cage. Unlike the acute seizure tests conducted by the ETSP, each corneal kindled mouse is allowed at least 3-4 days between tests to “washout” any investigational compound after testing. Compound 469 was tested in the method described in Example 5. The data for Compound 469 is illustrated in Tables 1-4.

[8] abbreviates: inhibition of cAMP production, potency.
Setting [9] is: CHO-K1, β-arrestin2 recruitment.
Setting [10] is: inhibition of cAMP production, S1P1.
Setting [11] is: 3 mg/kg s.c., 0.5 hour, Experiment 1.
Where [12] appears, read: 3 mg/kg s.c., 1 hour, Experiment 1.
Setting [13] is: 5 mg/kg s.c., 0.5 hour, Experiment 1.
The mark [14] stands for this setting: 5 mg/kg s.c., 1 hour, Experiment 1.

Chain of hERG channel (Q12809 whole entry): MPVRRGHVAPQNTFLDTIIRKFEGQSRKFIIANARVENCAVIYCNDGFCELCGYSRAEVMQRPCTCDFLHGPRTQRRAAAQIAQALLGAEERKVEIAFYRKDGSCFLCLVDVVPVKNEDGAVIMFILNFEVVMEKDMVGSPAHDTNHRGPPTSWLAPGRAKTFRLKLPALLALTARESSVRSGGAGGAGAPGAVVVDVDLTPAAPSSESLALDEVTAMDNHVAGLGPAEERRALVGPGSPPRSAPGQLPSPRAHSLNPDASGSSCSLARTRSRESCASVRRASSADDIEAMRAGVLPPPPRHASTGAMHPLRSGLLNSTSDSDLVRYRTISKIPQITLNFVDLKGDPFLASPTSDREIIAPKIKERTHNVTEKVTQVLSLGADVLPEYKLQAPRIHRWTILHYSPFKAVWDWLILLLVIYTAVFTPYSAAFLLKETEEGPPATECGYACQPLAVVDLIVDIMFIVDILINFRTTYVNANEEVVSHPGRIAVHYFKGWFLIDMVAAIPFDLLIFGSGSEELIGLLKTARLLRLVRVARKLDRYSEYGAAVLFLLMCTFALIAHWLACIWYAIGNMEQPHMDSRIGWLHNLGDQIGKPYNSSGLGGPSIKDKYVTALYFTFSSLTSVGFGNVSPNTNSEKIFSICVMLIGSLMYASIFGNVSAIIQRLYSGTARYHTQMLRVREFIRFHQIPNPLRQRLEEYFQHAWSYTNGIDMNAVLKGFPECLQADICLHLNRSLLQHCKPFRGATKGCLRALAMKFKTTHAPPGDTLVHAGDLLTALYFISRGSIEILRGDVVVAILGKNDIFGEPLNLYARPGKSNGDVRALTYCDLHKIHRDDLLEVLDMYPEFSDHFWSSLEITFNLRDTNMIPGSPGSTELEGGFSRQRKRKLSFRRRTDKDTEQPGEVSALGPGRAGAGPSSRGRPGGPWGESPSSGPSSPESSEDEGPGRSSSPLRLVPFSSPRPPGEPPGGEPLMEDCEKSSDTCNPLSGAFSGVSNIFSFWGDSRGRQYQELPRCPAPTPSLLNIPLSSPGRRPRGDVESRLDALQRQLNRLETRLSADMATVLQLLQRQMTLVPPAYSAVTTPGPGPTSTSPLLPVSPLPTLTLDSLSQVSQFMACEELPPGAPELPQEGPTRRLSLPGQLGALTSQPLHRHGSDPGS
Chain of human sphingosine-1-phosphate receptor 2 (S1P2) (O95136 whole entry): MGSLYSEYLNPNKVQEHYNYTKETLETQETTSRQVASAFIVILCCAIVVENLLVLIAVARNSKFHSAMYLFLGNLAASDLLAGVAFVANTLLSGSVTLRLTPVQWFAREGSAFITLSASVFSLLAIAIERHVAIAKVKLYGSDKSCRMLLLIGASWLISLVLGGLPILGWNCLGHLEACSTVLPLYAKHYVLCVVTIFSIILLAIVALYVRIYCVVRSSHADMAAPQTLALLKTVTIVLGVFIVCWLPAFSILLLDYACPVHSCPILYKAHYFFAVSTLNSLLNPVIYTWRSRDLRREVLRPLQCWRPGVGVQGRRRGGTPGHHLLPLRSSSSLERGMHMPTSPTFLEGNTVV
Chain of human sphingosine-1-phosphate receptor 3 (S1P3) (Q99500 whole entry): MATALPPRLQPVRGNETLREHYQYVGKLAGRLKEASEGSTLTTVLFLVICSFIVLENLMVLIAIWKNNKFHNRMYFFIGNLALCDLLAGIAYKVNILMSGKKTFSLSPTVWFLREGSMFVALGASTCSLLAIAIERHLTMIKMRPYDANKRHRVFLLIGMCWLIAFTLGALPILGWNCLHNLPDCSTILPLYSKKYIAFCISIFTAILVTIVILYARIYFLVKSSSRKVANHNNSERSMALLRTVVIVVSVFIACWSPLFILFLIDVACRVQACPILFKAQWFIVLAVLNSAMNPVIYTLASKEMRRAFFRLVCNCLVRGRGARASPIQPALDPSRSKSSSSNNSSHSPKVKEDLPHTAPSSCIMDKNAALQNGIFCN
Chain of sphingosine-1-phosphate receptor 5 (S1P5) (Q9H228 whole entry): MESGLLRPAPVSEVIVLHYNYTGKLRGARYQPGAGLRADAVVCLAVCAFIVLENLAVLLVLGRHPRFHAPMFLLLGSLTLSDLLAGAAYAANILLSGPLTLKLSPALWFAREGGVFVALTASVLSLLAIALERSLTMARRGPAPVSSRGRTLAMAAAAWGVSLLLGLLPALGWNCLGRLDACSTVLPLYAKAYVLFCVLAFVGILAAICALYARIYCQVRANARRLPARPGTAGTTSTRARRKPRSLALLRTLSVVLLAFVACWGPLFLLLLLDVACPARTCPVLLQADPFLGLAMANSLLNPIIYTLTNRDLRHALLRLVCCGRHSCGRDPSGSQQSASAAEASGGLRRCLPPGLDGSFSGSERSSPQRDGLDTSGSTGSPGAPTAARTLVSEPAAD

For the molecule `CC(C)Oc1ccc(-c2ncc(-c3ccccn3)cn2)cc1C#N` [Compound 742, 2-isopropoxy-5-(5-(pyridin-2-yl)pyrimidin-2-yl)benzonitrile], at hERG channel, the IC50 (commonly the concentration that gives 50% inhibition) was greater than 10 µM.

`COc1ccccc1-c1nc(-c2ccc3c(c2)nnn3C(C)C)no1` [Compound 287, 3-(1-isopropyl-1H-benzo[d][1,2,3]triazol-5-yl)-5-(2-methoxy-phenyl)-1,2,4-oxadiazole]: the Emax in data set [1] (inhibition of cAMP production) was greater than 75%; in data set [2] (setting [9]) it was greater than 75%; in data set [3] it was less than 50%; in data set [4], less than 50%; in data set [5] it was less than 50%. In addition, the EC50 in data set [1] (setting [8]) is less than 316 nM; in data set [2] (potency), less than 10 µM; in data set [3] it was greater than 10 µM; in data set [4] it was greater than 10 µM; in data set [5] it was greater than 10 µM. In addition, the “Lymphopenia effect (peripheral blood lymphocytes)” value (“Lymphopenia effect” for short) in data set [6] (6 mg/kg sc, 7 days) is reported as “no change: 6 mg/kg, 7 days”.

In the case of `CC(C)Oc1ccc(-c2ncc(-c3cccnc3)cn2)cc1C#N` [Compound 738, 2-isopropoxy-5-(5-(pyridin-3-yl)pyrimidin-2-yl)benzonitrile], the IC50 against hERG channel is greater than 10 µM.

As to `CC(C)Nc1ccc(-c2ncc(-c3ccnc(O)c3)cn2)cc1C#N` [Compound 743, 5-(5-(2-hydroxy-pyridin-4-yl)pyrimidin-2-yl)-2-(isopropyl-amino)benzonitrile], the IC50 on hERG channel was greater than 10 µM.

On to `CCC1(CC)CC(=O)c2cc(-c3nc(-c4cn[nH]c4)no3)ccc2O1` [Compound 469, 6-(3-(1H-pyrazol-4-yl)-1,2,4-oxadiazol-5-yl)-2,2-diethyl-chroman-4-one], for which, in data set [1] (setting [10]), the EC50 is less than 316 nM. Further, the “Average Seizure Scores” value in data set [7] (1 mg/kg, 2 hrs, Experiment 2) was determined as 3.25; in data set [7] (2.5 mg/kg, 2 hrs, Experiment 2), 3.38; in data set [7] (setting [11]) it was 4.5; in data set [7] (setting [12]), 3.38; in data set [7] (setting [13]) it was 4; in data set [7] (setting [14]), 3.38. In addition, the “Average Seizure Scores” value in data set [7] (5 mg/kg, 2 hrs, Experiment 2) is recorded as 2.5; in data set [7] (10 mg/kg, 1 hour), 2.38; in data set [7] (10 mg/kg, 2 hrs), 0.63. Further, the “N/F (number of animals protected / total number tested)” value in data set [7] (1 mg/kg, 2 hrs, Experiment 2) was 1/8; in data set [7] (2.5 mg/kg, 2 hrs, Experiment 2), 2/8; in data set [7] (setting [11]) it was 0/8; in data set [7] (setting [12]), 1/8; in data set [7] (setting [13]) it was 0/8; in data set [7] (setting [14]) it was 1/8. The “N/F (number of animals protected / total number tested)” value in data set [7] (5 mg/kg, 2 hrs, Experiment 2) is given as 3/8; in data set [7] (10 mg/kg, 1 hour), 2/8; in data set [7] (10 mg/kg, 2 hrs), 7/8. In addition, the effect on seizures entry in data set [7] (Corneal Kindled Seizure Model, mouse) is given as “can reduce seizures”. Also, the 50% effect level in data set [7] (Corneal Kindled Seizure Model, mouse, 2 hrs time point) (ED50) was put at a dose of 6.2 mg/kg. The “Lymphopenia effect” value in data set [6] (3.7 mg/kg sc, 3 days) was “no change: 3.7 mg/kg, 3 days”.

For `Cc1ccccc1-c1nc(-c2ccc3c(c2)nnn3C(C)C)no1` [Compound 99, 3-(1-isopropyl-1H-benzo[d][1,2,3]triazol-5-yl)-5-(o-tolyl)-1,2,4-oxadiazole], the Emax in data set [1] (inhibition of cAMP production) was greater than 75%; in data set [2] (setting [9]) it was greater than 75%; in data set [3] it was less than 50%; in data set [4], less than 50%; in data set [5] it was greater than 50%. The EC50 was less than 316 nM in data set [1] (setting [8]); less than 10 µM in data set [2] (potency); greater than 10 µM in data set [3]; greater than 10 µM in data set [4]; greater than 10 µM in data set [5]. The “Lymphopenia effect” value in data set [6] (6 mg/kg sc, 7 days) is given as “no change: 6 mg/kg, 7 days”.

As to `N#Cc1cc(-c2nc(-c3ccc4oc(=O)[nH]c4c3)no2)ccc1NCC1CC1` [Compound 423, 2-((cyclopropyl-methyl)amino)-5-(3-(2-oxo-2,3-dihydrobenzo[d]oxazol-5-yl)-1,2,4-oxadiazol-5-yl)benzonitrile], the Emax in data set [1] is greater than 75%; in data set [2] (CHO-K1), greater than 75%; in data set [3] it was less than 50%; in data set [4] it was less than 50%. Moreover, the EC50 was less than 316 nM in data set [1] (setting [10]), less than 10 µM in data set [2] (S1P1), less than 10 µM in data set [3] and less than 10 µM in data set [4]. In addition, the “Lymphopenia effect” value in data set [6] (6 mg/kg sc, 7 days) was “no change: 6 mg/kg, 7 days”.

Turning to `CC(C)n1nnc2cc(-c3nc(-c4cccc5c4OCO5)no3)ccc21` [Compound 32, 3-(benzo[d][1,3]dioxol-4-yl)-5-(1-isopropyl-1H-benzo[d][1,2,3]triazol-5-yl)-1,2,4-oxadiazole], the Emax in data set [1] (inhibition of cAMP production) is greater than 75%; in data set [2] (setting [9]) it was less than 75%; in data set [3] it was less than 50%; in data set [4], less than 50%; in data set [5] it was less than 50%. Moreover, the EC50 in data set [1] (setting [8]) was less than 316 nM; in data set [2] (potency), less than 10 µM; in data set [3], greater than 10 µM; in data set [4] it was greater than 10 µM; in data set [5], greater than 10 µM. Further, the “Lymphopenia effect” value in data set [6] (6 mg/kg sc, 7 days) is given as “no change: 6 mg/kg, 7 days”.
